# Experimental data taken from patent US11040981B2, “Pyrrolotriazine compounds and methods of inhibiting TAM kinases” (Syros Pharmaceuticals, Inc., priority 2017, dated 2021).
# Tested on: colon carcinoma CT-26 cells
# Test: CT-26 syngeneic tumor growth inhibition, alone or with anti-PD1 antibody
# Format: in vivo, Balb/c female mice
# Conditions: Compound 124 100 mg/kg oral twice daily combined with anti-PD1 antibody (clone RMP1-14) 10 mg/kg IP biweekly; compared with either agent as monotherapy; FIG. 3
# Method: BLAB/c syngeneic mice challenged with colon carcinoma CT-26 cells were used to test the tumor growth inhibitory activity of Compound 124 and an anti-PD1 antibody alone or in combination. CT-26 tumor cells were maintained in vitro as a monolayer culture in RPMI-1640 medium supplemented with 10% heat inactivated fetal bovine serum, 100 U/ml penicillin and 100 μg/ml streptomycin at 37° C. in an atmosphere of 5% CO2 in air. The tumor cells were routinely subcultured twice weekly by trypsin-EDTA treatment. The cells growing in an exponential growth phase were harvested and counted for tumor inoculation. […]
# Mice (8 for each regimen) were dosed with one of the following regimens: (1) twice daily oral dosing with 100 mg/kg of Compound 124; (2) biweekly IP injections with 10 mg/kg of anti-PD1 antibody (clone RMP1-14); (3) a combination of twice daily Compound 124 (100 mg/kg) and biweekly anti-PD1 antibody (10 mg/kg) or (4) an orally dosed vehicle control. Subcutaneous tumor volumes were measured three times per week starting at three days post-first dosing using caliper measurements in 2 dimensions (looking down at the tumor, using the calipers to make 2 diameter measurements at right angles to each other). The tumor volume was then calculated using the following standard formula: Tumor Volume=0.5*A*B^2, wherein A=longest diameter of the tumor; and B=shortest diameter of the tumor.
smiles,measurement,value
"COC[C@H](C)Nc1ncc2c(-c3ccc(CN4CCN(C)CC4)cc3)cc([C@H]3CC[C@H](O)CC3)n2n1 (single isomer, unassigned) [Compound 124]",tumor growth (subcutaneous tumor volume),slower tumor growth
